Laboratory results reported in patent EP4603105A1, “PHARMACEUTICAL COMPOSITION CONTAINING CYCLIC COMPOUND HAVING SELECTIVE KRAS INHIBITORY EFFECT AGAINST HRAS AND NRAS” (CHUGAI SEIYAKU KABUSHIKI KAISHA, priority 2022, dated 2024).

How the values were obtained:
[1] = tested on: human lung cancer strain NCI-H441; assay type: cell-based
Outline: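 Step one: dispense the test compound in serial DMSO dilutions. Step three: add the reagent and measure […].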

HRAS wild-type protein = HRAS wild-type protein (Homo sapiens, UniProt P01112); assay: Binding to HRAS by surface plasmon resonance (SPR), KD and KD ratio to KRAS; conditions: ratio of KD with respect to HRAS wild-type protein to KD with respect to KRAS
Outline: (§1)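 Biotinylated GDP-bound RAS was captured at about 100–300 RU. Running buffer: HBS pH 7.4, 10 mM MgCl2, 10 µM GDP, 1 mM DTT, 0.01% Tween 20, 4% DMSO.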

[2] = molecular target: GDP-bound NRAS wild-type protein (Homo sapiens, UniProt P01111); assay: Binding to NRAS by surface plasmon resonance (SPR), KD and KD ratio to KRAS; conditions: ratio of KD with respect to GDP-bound NRAS wild-type protein to KD with respect to KRAS
Outline: as §1

Chain of HRAS wild-type protein (P01112 whole entry): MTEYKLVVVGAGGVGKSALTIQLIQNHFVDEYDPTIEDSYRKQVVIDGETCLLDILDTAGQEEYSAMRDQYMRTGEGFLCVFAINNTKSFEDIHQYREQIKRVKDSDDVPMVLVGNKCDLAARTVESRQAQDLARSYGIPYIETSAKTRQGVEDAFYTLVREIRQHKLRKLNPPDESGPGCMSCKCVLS
Chain of GDP-bound NRAS wild-type protein (P01111 whole entry): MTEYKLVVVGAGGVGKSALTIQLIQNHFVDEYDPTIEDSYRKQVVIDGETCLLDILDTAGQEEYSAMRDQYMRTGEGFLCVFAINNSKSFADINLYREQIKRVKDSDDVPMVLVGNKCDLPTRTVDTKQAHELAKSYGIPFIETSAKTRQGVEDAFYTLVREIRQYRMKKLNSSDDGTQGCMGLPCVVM

Compound | IC50 [1] | HRAS /KRAS (HRAS wild-type protein) | NRAS /KRAS [2]
CCO[C@@H]1C[C@H]2C(=O)NC3(CCC3)C(=O)N(C)[C@@H](C3CCCC3)C(=O)N(C)[C@H](C(=O)N(C)CC)CC(=O)N(C)[C@@H](CC(F)F)C(=O)N[C@@H]([C@@H](C)CC)C(=O)N(C)CC(=O)N(C)[C@H]3C/C=C\CCN(C3=O)[C@@H](Cc3ccc(C(F)(F)F)cc3)C(=O)N(C)CC(=O)N[C@@H](CCc3cc(F)c(C(F)(F)F)c(F)c3)C(=O)N2C1 [PP1303] | 0.0042 µM | A (a compound having 10 or more and less than 20 is denoted as A) | AA (a compound having 20 or more is denoted as AA)
CCC[C@H]1C(=O)N[C@@H]([C@@H](C)CC)C(=O)N(C)CC(=O)N(C)[C@H]2C/C=C\CCN(C2=O)[C@@H](Cc2ccc(C(F)(F)F)cc2)C(=O)N(C)CC(=O)N[C@@H](CCc2cc(F)c(C(F)(F)F)c(F)c2)C(=O)N2C[C@H](OCC)C[C@H]2C(=O)NC2(CCC2)C(=O)N(C)[C@@H](C2CCCC2)C(=O)N(C)[C@H](C(=O)N(C)CC)CC(=O)N1C [PP1304] | 0.0088 µM | A (a compound having 10 or more and less than 20 is denoted as A) | A (a compound having 10 or more and less than 20 is denoted as A)
CCO[C@@H]1C[C@H]2C(=O)NC3(CCC3)C(=O)N(C)[C@@H](C3CCCC3)C(=O)N(C)[C@H](C(=O)N(CC)CC)CC(=O)N(C)[C@@H](CC)C(=O)N[C@@H]([C@@H](C)CC)C(=O)N(C)CC(=O)N(C)[C@H]3C/C=C\CCN(C3=O)[C@@H](Cc3ccc(C(F)(F)F)cc3)C(=O)N(C)CC(=O)N[C@@H](CCc3cc(F)c(C(F)(F)F)c(F)c3)C(=O)N2C1 [PP1305] | 0.013 µM | A (a compound having 10 or more and less than 20 is denoted as A) | AA (a compound having 20 or more is denoted as AA)
CCO[C@@H]1C[C@H]2C(=O)NC3(CCC3)C(=O)N(C)[C@@H](C3CCCC3)C(=O)N(C)[C@H](C(=O)N(CC)CC)CC(=O)N(C)[C@@H](CC(C)C)C(=O)N[C@@H]([C@@H](C)CC)C(=O)N(C)CC(=O)N(C)[C@H]3C/C=C\CCN(C3=O)[C@@H](Cc3ccc(C(F)(F)F)cc3)C(=O)N(C)CC(=O)N[C@@H](CCc3cc(F)c(C(F)(F)F)c(F)c3)C(=O)N2C1 [PP1306] | 0.0147 µM | A (a compound having 10 or more and less than 20 is denoted as A) | AA (a compound having 20 or more is denoted as AA)
CCO[C@@H]1C[C@H]2C(=O)NC3(CCC3)C(=O)N(C)[C@@H](C3CCCC3)C(=O)N(C)[C@H](C(=O)N(CC)CC)CC(=O)N(C)[C@@H](C)C(=O)N[C@@H]([C@@H](C)CC)C(=O)N(C)CC(=O)N(C)[C@H]3C/C=C\CCN(C3=O)[C@@H](Cc3ccc(C(F)(F)F)cc3)C(=O)N(C)CC(=O)N[C@@H](CCc3cc(F)c(C(F)(F)F)c(F)c3)C(=O)N2C1 [PP1308] | 0.0109 µM | A (a compound having 10 or more and less than 20 is denoted as A) | A (a compound having 10 or more and less than 20 is denoted as A)
CCC[C@H]1C(=O)N[C@@H]([C@@H](C)CC)C(=O)N(C)CC(=O)N(C)[C@H]2C/C=C\CCN(C2=O)[C@@H](Cc2ccc(C(F)(F)F)cc2)C(=O)N(C)CC(=O)N[C@@H](CCc2cc(F)c(C(F)(F)F)c(F)c2)C(=O)N2C[C@H](OCC)C[C@H]2C(=O)NC2(CCC2)C(=O)N(C)[C@@H](C2CCCC2)C(=O)N(C)[C@H](C(=O)N(CC)CC)CC(=O)N1C [PP1310] | 0.0045 µM | A (a compound having 10 or more and less than 20 is denoted as A) | AA (a compound having 20 or more is denoted as AA)
CCC[C@H]1C(=O)N[C@@H]([C@@H](C)CC)C(=O)N(C)CC(=O)N(C)[C@H]2C/C=C\CCN(C2=O)[C@@H](Cc2ccc(C(F)(F)F)cc2)C(=O)N(C)CC(=O)N[C@@H](CCc2cc(F)c(C(F)(F)F)c(F)c2)C(=O)N2C[C@H](OCC)C[C@H]2C(=O)NC2(CCC2)C(=O)N(C)[C@@H](C2CCCC2)C(=O)N(C)[C@H](C(=O)N2CC3CCC(C2)O3)CC(=O)N1C [PP1315] | 0.0345 µM | A (a compound having 10 or more and less than 20 is denoted as A) | AA (a compound having 20 or more is denoted as AA)
CCO[C@@H]1C[C@H]2C(=O)NC3(CCC3)C(=O)N(C)[C@@H](C3CCCC3)C(=O)N(C)[C@H](C(=O)N(C)CCOC)CC(=O)N(C)[C@@H](CC)C(=O)N[C@@H]([C@@H](C)CC)C(=O)N(C)CC(=O)N(C)[C@H]3C/C=C\CCN(C3=O)[C@@H](Cc3ccc(C(F)(F)F)cc3)C(=O)N(C)CC(=O)N[C@@H](CCc3cc(F)c(C(F)(F)F)c(F)c3)C(=O)N2C1 [PP1316] | 0.0132 µM | A (a compound having 10 or more and less than 20 is denoted as A) | A (a compound having 10 or more and less than 20 is denoted as A)
CCO[C@@H]1C[C@H]2C(=O)NC3(CCC3)C(=O)N(C)[C@@H](C3CCCC3)C(=O)N(C)[C@H](C(=O)N(C)CCOC)CC(=O)N(C)[C@@H](CC(C)C)C(=O)N[C@@H]([C@@H](C)CC)C(=O)N(C)CC(=O)N(C)[C@H]3C/C=C\CCN(C3=O)[C@@H](Cc3ccc(C(F)(F)F)cc3)C(=O)N(C)CC(=O)N[C@@H](CCc3cc(F)c(C(F)(F)F)c(F)c3)C(=O)N2C1 [PP1317] | 0.0076 µM | B (a compound having 3 or more and less than 10 is denoted as B) | A (a compound having 10 or more and less than 20 is denoted as A)
CCO[C@@H]1C[C@H]2C(=O)NC3(CCC3)C(=O)N(C)[C@@H](C3CCCC3)C(=O)N(C)[C@H](C(=O)N(C)CCOC)CC(=O)N(C)[C@@H](CC3CC3)C(=O)N[C@@H]([C@@H](C)CC)C(=O)N(C)CC(=O)N(C)[C@H]3C/C=C\CCN(C3=O)[C@@H](Cc3ccc(C(F)(F)F)cc3)C(=O)N(C)CC(=O)N[C@@H](CCc3cc(F)c(C(F)(F)F)c(F)c3)C(=O)N2C1 [PP1318] | 0.0115 µM | A (a compound having 10 or more and less than 20 is denoted as A) | A (a compound having 10 or more and less than 20 is denoted as A)
CCO[C@@H]1C[C@H]2C(=O)NC3(CCC3)C(=O)N(C)[C@@H](C3CCCC3)C(=O)N(C)[C@H](C(=O)N(C)CCOC)CC(=O)N(C)[C@@H](C)C(=O)N[C@@H]([C@@H](C)CC)C(=O)N(C)CC(=O)N(C)[C@H]3C/C=C\CCN(C3=O)[C@@H](Cc3ccc(C(F)(F)F)cc3)C(=O)N(C)CC(=O)N[C@@H](CCc3cc(F)c(C(F)(F)F)c(F)c3)C(=O)N2C1 [PP1319] | 0.0575 µM | B (a compound having 3 or more and less than 10 is denoted as B) | A (a compound having 10 or more and less than 20 is denoted as A)
CCO[C@@H]1C[C@H]2C(=O)NC3(CCC3)C(=O)N(C)[C@@H](C3CCCC3)C(=O)N(C)[C@H](C(=O)N(C)CCOC)CC(=O)N(C)[C@@H](CC(F)F)C(=O)N[C@@H]([C@@H](C)CC)C(=O)N(C)CC(=O)N(C)[C@H]3C/C=C\CCN(C3=O)[C@@H](Cc3ccc(C(F)(F)F)cc3)C(=O)N(C)CC(=O)N[C@@H](CCc3cc(F)c(C(F)(F)F)c(F)c3)C(=O)N2C1 [PP1320] | 0.0077 µM | A (a compound having 10 or more and less than 20 is denoted as A) | A (a compound having 10 or more and less than 20 is denoted as A)
CCO[C@@H]1C[C@H]2C(=O)NC3(CCC3)C(=O)N(C)[C@@H](C3CCCC3)C(=O)N(C)[C@H](C(=O)N(C)CCOC)CC(=O)N(C)[C@@H](CC)C(=O)N[C@@H]([C@@H](C)CC)C(=O)N(C)CC(=O)N(C)[C@H]3C/C=C\CCN(C3=O)[C@@H](Cc3ccc(C(F)(F)F)cc3)C(=O)N(C)CC(=O)N[C@@H](CCc3ccc(C(F)(F)F)c(OC)c3)C(=O)N2C1 [PP1321] | 0.0139 µM | B (a compound having 3 or more and less than 10 is denoted as B) | A (a compound having 10 or more and less than 20 is denoted as A)
CCO[C@@H]1C[C@H]2C(=O)NC3(CCC3)C(=O)N(C)[C@@H](C3CCCC3)C(=O)N(C)[C@H](C(=O)N(C)CCOC)CC(=O)N(C)[C@@H](CC)C(=O)N[C@@H]([C@@H](C)CC)C(=O)N(C)CC(=O)N(C)[C@H]3C/C=C\CCN(C3=O)[C@@H](Cc3ccc(C(F)(F)F)cc3)C(=O)N(C)CC(=O)N[C@@H](CCc3ccc4sccc4c3)C(=O)N2C1 [PP1322] | 0.0562 µM | A (a compound having 10 or more and less than 20 is denoted as A) | A (a compound having 10 or more and less than 20 is denoted as A)
CCO[C@@H]1C[C@H]2C(=O)NC3(CCC3)C(=O)N(C)[C@@H](C3CCCC3)C(=O)N(C)[C@H](C(=O)N(C)CCOC)CC(=O)N(C)[C@@H](CC(C)C)C(=O)N[C@@H]([C@@H](C)CC)C(=O)N(C)CC(=O)N(C)[C@H]3C/C=C\CCN(C3=O)[C@@H](Cc3ccc(C(F)(F)F)cc3)C(=O)N(C)CC(=O)N[C@@H](CCc3ccc(C(F)(F)F)c(OC)c3)C(=O)N2C1 [PP1324] | 0.0044 µM | A (a compound having 10 or more and less than 20 is denoted as A) | A (a compound having 10 or more and less than 20 is denoted as A)
